Results as given in publication PMC8405660, “Detection of Borrelia burgdorferi antigens in tissues and plasma during early infection in a mouse model” (Scientific Reports, 2021).
Where no end group is shown, it is not given here.

Molecular target: C10-11 mAb
Assay: Competitive ELISA with AChE-labeled C10 peptide on C10-11 mAb
Parameters: species or system mouse
Conditions: read-out: Apparent dissociation constant (Kapp) of C10-11 mAb; concentration of competitor inducing 50% inhibition of binding of AChE-labeled C10 peptide (0.5 EU/mL); mAb 1 ng/mL, overnight at 4 °C; NB means no binding
Procedure: The apparent affinity of anti-C10 peptide mAbs for different variants of C10 peptides and recombinant OspC was measured by competitive ELISA, using goat anti-mouse antibodies (Jackson ImmunoResearch, Cambridgeshire, United Kingdom) coated on the wells of a microtiter plate. A mix of anti-C10 peptide mAb (1 ng/mL), AChE-labeled C10 peptide (0.5 EU/mL) and different concentrations of competitor peptide or recombinant OspC were reacted overnight in the wells at 4 °C.

Sequence | Kd
PIVAESPKKP [compound 10] | 100 nM
PVMAESPKKP [compound 9] | 125 nM
PVVAEAPKKP [compound 2] | 146 nM
PVVAESPKKP [compound 1, reference compound] | 33 nM
PVVAESPKKT [compound 3] | 60 nM
PVVAESQKKP [compound 7] | 170 nM
PVVAETPKKP [compound 5] | 179 nM
